# Laboratory results: paper PMC4023971, “Targeting Prolyl Endopeptidase with Valproic Acid as a Potential Modulator of Neutrophilic Inflammation” (PLoS ONE, 2014)
# Molecular target: T1, prolyl endopeptidase (PE, rhPE) (Homo sapiens, UniProt P48147)
# T1 construct: gene PREP; recombinant human PE expressed in E. coli from plasmid pTrcHis PE
# T1 sequence (P48147 1-710): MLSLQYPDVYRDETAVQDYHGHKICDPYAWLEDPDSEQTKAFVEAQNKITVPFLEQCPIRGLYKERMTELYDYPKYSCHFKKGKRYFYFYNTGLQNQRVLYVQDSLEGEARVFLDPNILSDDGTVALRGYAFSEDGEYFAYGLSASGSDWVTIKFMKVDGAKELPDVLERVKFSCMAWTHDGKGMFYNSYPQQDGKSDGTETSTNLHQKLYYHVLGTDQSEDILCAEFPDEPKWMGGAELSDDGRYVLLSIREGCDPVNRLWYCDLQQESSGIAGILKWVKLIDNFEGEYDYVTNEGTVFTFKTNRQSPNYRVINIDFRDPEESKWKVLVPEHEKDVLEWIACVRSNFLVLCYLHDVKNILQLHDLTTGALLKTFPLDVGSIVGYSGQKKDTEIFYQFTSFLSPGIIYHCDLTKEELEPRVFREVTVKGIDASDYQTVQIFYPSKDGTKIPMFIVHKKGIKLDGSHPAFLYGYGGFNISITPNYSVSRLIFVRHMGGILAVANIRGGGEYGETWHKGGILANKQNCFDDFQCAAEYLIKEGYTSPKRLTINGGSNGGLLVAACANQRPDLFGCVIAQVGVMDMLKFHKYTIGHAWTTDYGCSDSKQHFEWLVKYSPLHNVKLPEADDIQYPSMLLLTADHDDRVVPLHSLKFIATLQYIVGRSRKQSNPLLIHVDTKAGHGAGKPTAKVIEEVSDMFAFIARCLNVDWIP
# Assay: purified rhPE activity assay (Suc-Gly-Pro-AMC fluorescence / Suc-Gly-Pro-pNA UV-vis, Lineweaver-Burk); supported by CD and NMR competition with ZPP
# Assay type: biochemical
structure (smiles),measurement,value
"CCCC(CCC)C(=O)O [VPA, Valproic acid]",Ki,1000 to 2000 µM
